Laboratory results reported in ChEMBL document CHEMBL1201862, “PubChem BioAssay data set” (2004).
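Five concentrations, 48 hours, 96-well plates. The concentration for 50% growth inhibition is given as GI50.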 Calls of active or inactive are those of the source. Cut-off read from the data, not from the text of the source: active = GI50 up to about 1.1 µM and inactive = higher.

Columns and labels:
Test in all cases: DTP human tumour cell line panel, 48 h
NCI/ADR-RES = system: NCI/ADR-RES
SW-620 = system: SW-620
K562 = system: K562
COLO 205 = system: COLO 205
ACHN = system: ACHN
CAKI-1 = system: CAKI-1
OVCAR-5 = system: OVCAR-5
OVCAR-4 = system: OVCAR-4
M14 = system: M14
HL-60 = system: HL-60
UACC-62 = system: UACC-62
HOP-92 = system: HOP-92
EKVX = system: EKVX
PC-3 = system: PC-3
OVCAR-8 = system: OVCAR-8
SNB-75 = system: SNB-75
SK-MEL-2 = system: SK-MEL-2
NCI-H226 = system: NCI-H226
Malme-3M = system: Malme-3M

Row | SMILES | GI50 (NCI/ADR-RES) | GI50 (SW-620) | GI50 (K562) | GI50 (COLO 205) | GI50 (ACHN) | GI50 (CAKI-1) | GI50 (OVCAR-5) | GI50 (OVCAR-4) | GI50 (M14) | GI50 (HL-60) | GI50 (UACC-62) | GI50 (HOP-92) | GI50 (EKVX) | GI50 (PC-3) | GI50 (OVCAR-8) | GI50 (SNB-75) | GI50 (SK-MEL-2) | GI50 (NCI-H226) | GI50 (Malme-3M)
1 | Cc1cn(CCOCCOC(=O)NC(CCCNC(N)=O)C(=O)O)c(=O)[nH]c1=O (stereo not drawn) | > 100 µM (inactive) | > 100 µM (inactive) | > 100 µM (inactive) | > 100 µM (inactive) | > 100 µM (inactive) | > 100 µM (inactive) | > 100 µM (inactive) | > 100 µM (inactive) | > 100 µM (inactive) | > 100 µM (inactive) | > 100 µM (inactive) | > 100 µM (inactive) | > 100 µM (inactive) | > 100 µM (inactive) | > 100 µM (inactive) | > 100 µM (inactive) | > 100 µM (inactive) | > 100 µM (inactive) | –
2 | Cc1ccc([N+](=O)[O-])cc1NC1=NCCO1 | > 100 µM (inactive) | > 100 µM (inactive) | > 100 µM (inactive) | > 100 µM (inactive) | > 100 µM (inactive) | > 100 µM (inactive) | > 100 µM (inactive) | > 100 µM (inactive) | > 100 µM (inactive) | > 100 µM (inactive) | > 100 µM (inactive) | – | > 100 µM (inactive) | > 100 µM (inactive) | > 100 µM (inactive) | > 100 µM (inactive) | > 100 µM (inactive) | > 100 µM (inactive) | > 100 µM (inactive)
3 | C=CCC1=CC2(OC)C(=O)C(OC)(OC)C1C1C(OC)(OC)C(=O)C(OC)=CC12CC=C (stereo not drawn) | > 100 µM (inactive) | > 100 µM (inactive) | > 100 µM (inactive) | > 100 µM (inactive) | > 100 µM (inactive) | > 100 µM (inactive) | > 100 µM (inactive) | > 100 µM (inactive) | > 100 µM (inactive) | > 100 µM (inactive) | > 100 µM (inactive) | > 100 µM (inactive) | > 100 µM (inactive) | > 100 µM (inactive) | > 100 µM (inactive) | > 100 µM (inactive) | > 100 µM (inactive) | – | > 100 µM (inactive)
4 | CC(=O)O[C@@H]1[C@H](OC2CCCCC2(c2ccccc2)c2ccccc2)O[N+]([O-])=CC12CCCCC2 (stereo partly drawn) | 15.9 µM (inactive) | 16 µM (inactive) | 54.2 µM (inactive) | 16.4 µM (inactive) | 17.6 µM (inactive) | 14.4 µM (inactive) | 15.8 µM (inactive) | – | 18.7 µM (inactive) | < 0.01 µM (active) | 17.7 µM (inactive) | 24.5 µM (inactive) | 17.9 µM (inactive) | 10.8 µM (inactive) | 25.5 µM (inactive) | 15.9 µM (inactive) | – | 14.1 µM (inactive) | –
5 | C=CCOC(=O)Cn1cnc2c(N)ncnc21 | > 100 µM (inactive) | > 100 µM (inactive) | > 100 µM (inactive) | > 100 µM (inactive) | > 100 µM (inactive) | > 100 µM (inactive) | – | > 100 µM (inactive) | > 100 µM (inactive) | > 100 µM (inactive) | > 100 µM (inactive) | – | > 100 µM (inactive) | > 100 µM (inactive) | > 100 µM (inactive) | > 100 µM (inactive) | > 100 µM (inactive) | > 100 µM (inactive) | > 100 µM (inactive)
6 | CCOC(=O)Nc1c(C#N)[n+]([O-])c2cc(Cl)c(Cl)cc2[n+]1[O-] | 20.7 µM (inactive) | 13.1 µM (inactive) | 16.3 µM (inactive) | 15 µM (inactive) | – | 19.4 µM (inactive) | – | 15.3 µM (inactive) | 16.9 µM (inactive) | – | 10.7 µM (inactive) | 5.4 µM (inactive) | – | 7.28 µM (inactive) | 13.4 µM (inactive) | 15.4 µM (inactive) | 17.7 µM (inactive) | 15.7 µM (inactive) | 15.2 µM (inactive)
7 | NC1CSc2ccccc2NC1=O (stereo not drawn) | > 100 µM (inactive) | > 100 µM (inactive) | > 100 µM (inactive) | > 100 µM (inactive) | > 100 µM (inactive) | > 100 µM (inactive) | > 100 µM (inactive) | > 100 µM (inactive) | > 100 µM (inactive) | > 100 µM (inactive) | > 100 µM (inactive) | – | > 100 µM (inactive) | > 100 µM (inactive) | > 100 µM (inactive) | > 100 µM (inactive) | > 100 µM (inactive) | > 100 µM (inactive) | > 100 µM (inactive)
8 | CC12CCC(=O)[C@@]1(C)CCCC2=O (stereo partly drawn) | > 100 µM (inactive) | > 100 µM (inactive) | > 100 µM (inactive) | > 100 µM (inactive) | > 100 µM (inactive) | > 100 µM (inactive) | > 100 µM (inactive) | > 100 µM (inactive) | > 100 µM (inactive) | > 100 µM (inactive) | > 100 µM (inactive) | – | > 100 µM (inactive) | > 100 µM (inactive) | > 100 µM (inactive) | > 10 µM (inactive) | > 100 µM (inactive) | > 100 µM (inactive) | > 100 µM (inactive)
